In assay [1] the test system is Enterococcus faecalis S613. The experiment in a line: Micro-broth MIC assay, E. faecalis S613. It counts as cell-based. As to conditions: for Minimum Inhibitory Concentration (MIC) E. faecalis S613: Gram-(+), clinical strain, triplicate, no growth after 16-24 hours at 37° C.; for MIC: Enterococcus faecalis, S613, read-out: Minimum Inhibitory Concentration (MIC) E. faecalis S613. How it is done: (§1) Four clinical strains were used for these studies, Enterococcus faecalis S613, Enterococcus faecium isolate 105, Methicillin-Resistant Staphylococcus aureus 371 (MRSA 371) and Acinetobacter baumannii AB210. Enterococcus strains were cultured in 80% Lysogeny Broth (LB) & 20% Brain Heart Infusion (BHI). MRSA 371 and AB210 were cultured in 100% LB.
(§2) Micro-broth MIC assays were performed in triplicate using 96-well plates. Wells were filled with 150 μL of broth media and inoculated with 2 μL of stationary phase culture. The concentration of the test antibiotics increased in 2-fold increments and ranged from 0.25-128 μg/mL. Plates were incubated overnight at 37° C. and the MICs were defined as the lowest drug concentration that had no growth after 16-24 hours.

The subject of assay [2] is Methicillin-Resistant Staphylococcus aureus 371 (MRSA 371). The experiment in a line: Micro-broth MIC assay, MRSA 371. It counts as cell-based. As to conditions: for Minimum Inhibitory Concentration (MIC) MRSA 371: Gram-(+), clinical strain, triplicate, no growth after 16-24 hours at 37° C.; for MIC: Staphylococcus aureus, MRSA, read-out: Minimum Inhibitory Concentration (MIC) MRSA 371. How it is done: as §1, §2

In another assay the test system is E. faecium 501. As to the kind of experiment: Micro-broth MIC assay, E. faecium 501. Conditions: Gram-(+), clinical strain, triplicate, no growth after 16-24 hours at 37° C.; for MIC: Enterococcus faecium, 501, read-out: Minimum Inhibitory Concentration (MIC) E. faecium 501. Format: cell-based, Enterococcus faecium.
Assay [3] concerns Acinetobacter baumannii AB210. As to the kind of experiment: Micro-broth MIC assay, A. baumannii AB210. It counts as cell-based. As to conditions: for Minimum Inhibitory Concentration (MIC) A. baumannii AB210: Gram-(−), clinical strain, triplicate, no growth after 16-24 hours at 37° C.; for MIC: Acinetobacter baumannii, AB210, read-out: Minimum Inhibitory Concentration (MIC) A. baumannii AB210. How it is done:
as §1, §2

Consider seven compounds from US10065924B2, “Preparation and biological evaluation of viridicatumtoxin analogs” (priority 2014, dated 2018).

≈ marks a conversion by molar mass, not a printed value.

For the compound `COc1cc(O)c2c(O)c3c(c4c2c1[C@]1(C4)C(C)=CCCC1(C)C)[C@H](O)[C@@]1(O)CC(=O)C(C(N)=O)=C(O)[C@@]1(O)C3=O` [(+)-2, viridicatumtoxin A], the “Minimum Inhibitory Concentration (MIC) E. faecalis S613” value in assay [1] turned out to be 1 µg/mL. The “Minimum Inhibitory Concentration (MIC) MRSA 371” value in assay [2] is 4 µg/mL. Also, the “Minimum Inhibitory Concentration (MIC) E. faecium 501” value with E. faecium 501 turned out to be 1 µg/mL. Also, the “Minimum Inhibitory Concentration (MIC) A. baumannii AB210” value in assay [3] was determined as 64 µg/mL.
Take `COc1cc(O)c2c(O)c3c(c4c2c1[C@]1(C4)C(C)=CCCC1(C)C)[C@@H](O)[C@H]1CC(O)=C(C(N)=O)C(=O)[C@@]1(O)C3=O` (racemic) [(±)-V6]: the MIC amounted to 0.5 µg/mL (≈ 0.91 µM) in assay [1], 2 µg/mL (≈ 3.64 µM) in assay [2], 0.5 µg/mL (≈ 0.91 µM) in the assay on E. faecium 501 and 64 µg/mL (≈ 116 µM) in assay [3].
`COc1cc(O)c2c(O)c3c(c4c2c1[C@@]1(C4)C(C)=CCCC1(C)C)C(=O)[C@H]1CC(O)=C(C(N)=O)C[C@@]1(O)C3=O` (racemic) [(±)-V3]: the MIC came out at 4 µg/mL (≈ 7.5 µM) in assay [1], 8 µg/mL (≈ 15 µM) in assay [2], 2 µg/mL (≈ 3.75 µM) in the assay with E. faecium 501 and 64 µg/mL (≈ 120 µM) in assay [3].
On to “viridicatumtoxin B [(±)-1, reference compound]”, for which the “Minimum Inhibitory Concentration (MIC) E. faecalis S613” value in assay [1] is 1 µg/mL. The “Minimum Inhibitory Concentration (MIC) MRSA 371” value in assay [2] is 4 µg/mL. For the same compound, the “Minimum Inhibitory Concentration (MIC) E. faecium 501” value in the assay on E. faecium 501 was found to be 0.5 µg/mL. Besides, the “Minimum Inhibitory Concentration (MIC) A. baumannii AB210” value in assay [3] was 64 µg/mL.
For `COc1cc(O)c2c(O)c3c(c4c2c1[C@]1(C4)C(C)=CCCC1(C)C)[C@H](O)[C@H]1CC(O)=C(C(N)=O)C(=O)[C@@]1(O)C3=O` (racemic) [(±)-V5], the MIC in assay [1] stood at 1 µg/mL (≈ 1.82 µM); in assay [2], 8 µg/mL (≈ 14.6 µM); in the assay on E. faecium 501, 1 µg/mL (≈ 1.82 µM); in assay [3], 64 µg/mL (≈ 116 µM).
In the case of `COc1cc(OC)c2c(O)c3c(c4c2c1[C@@]1(C4)C(C)=CCCC1(C)C)C(=O)[C@H]1CC(O)=C(C(N)=O)C[C@@]1(O)C3=O` (racemic) [(±)-V4], the MIC amounted to 4 µg/mL (≈ 7.3 µM) in assay [1], 4 µg/mL (≈ 7.3 µM) in assay [2], 4 µg/mL (≈ 7.3 µM) with E. faecium 501 and 64 µg/mL (≈ 117 µM) in assay [3].
As for `COc1cc(O)c2c(O)c3c(c4c2c1[C@]1(C4)C(C)=CCCC1(C)C)C(=O)[C@H]1CC(O)=C(C(N)=O)C(=O)[C@@]1(O)C3=O` (racemic) [(±)-V2], the MIC in assay [1] was found to be 0.5 µg/mL (≈ 0.913 µM); in assay [2] it was 2 µg/mL (≈ 3.65 µM); in the assay with E. faecium 501, 0.5 µg/mL (≈ 0.913 µM); in assay [3], 64 µg/mL (≈ 117 µM).
